Converted amounts (≈) assume the structure as drawn.
Legend:
Assay type in all cases: functional
Escherichia coli [1] = assay: Antibacterial activity against Escherichia coli ATCC 25922 after 16 to 20 hrs by broth microdilution method
Enterobacter cloacae = assay: Antibacterial activity against Enterobacter cloacae CIP 103475 after 16 to 20 hrs by broth microdilution method
Citrobacter freundii = assay: Antibacterial activity against Citrobacter freundii CIP 5732 after 16 to 20 hrs by broth microdilution method
Enterococcus faecalis = assay: Antibacterial activity against Enterococcus faecalis ATCC 25912 after 16 to 20 hrs by broth microdilution method
Proteus vulgaris = assay: Antibacterial activity against Proteus vulgaris CIP 104989 after 16 to 20 hrs by broth microdilution method
Klebsiella pneumoniae = assay: Antibacterial activity against Klebsiella pneumoniae CIP 53153 after 16 to 20 hrs by broth microdilution method
Pseudomonas aeruginosa = assay: Antibacterial activity against Pseudomonas aeruginosa CIP 82118 after 16 to 20 hrs by broth microdilution method
Escherichia coli [2] = assay: Antibacterial activity against Escherichia coli ATCC 35218 after 16 to 20 hrs by broth microdilution method
Staphylococcus aureus [3] = assay: Antibacterial activity against Staphylococcus aureus […] after 16 to 20 hrs by broth microdilution method
Staphylococcus aureus [4] = assay: Antibacterial activity against methicillin-resistant Staphylococcus aureus ATCC 43300 after 16 to 20 hrs by broth microdilution method

Compound	MIC (Escherichia coli [1]) [µg/mL]	MIC (Enterobacter cloacae) [µg/mL]	MIC (Citrobacter freundii) [µg/mL]	MIC (Enterococcus faecalis) [µg/mL]	MIC (Proteus vulgaris) [µg/mL]	MIC (Klebsiella pneumoniae) [µg/mL]	MIC (Pseudomonas aeruginosa) [µg/mL]	MIC (Escherichia coli [2]) [µg/mL]	MIC (Staphylococcus aureus [3]) [µg/mL]	MIC (Staphylococcus aureus [4]) [µg/mL]
COc1ccc2ccc(O)c(C(c3ccccc3)N3CCC(C)CC3)c2c1 (stereo not given)	> 512	> 512	> 512	> 512	> 512	> 512	> 512	> 512	8 (≈ 22.1 µM)	> 512
Oc1ccc2cc(Br)ccc2c1C(c1ccccc1)N1CCCCC1 (stereo not given)	> 512	> 512	> 512	> 512	> 512	> 512	> 512	> 512	> 512	> 512
Oc1ccc2cc(Br)ccc2c1C(c1cccc(Cl)c1)N1CCCCC1 (stereo not given)	> 512	> 512	> 512	> 512	> 512	> 512	> 512	> 512	8 (≈ 18.6 µM)	> 512
COc1ccc2ccc(O)c(C(c3ccccc3)N3CCCCC3)c2c1 (stereo not given)	> 512	> 512	> 512	> 512	> 512	> 512	> 512	> 512	> 512	> 512
CC1CCN(C(c2cccc3ccccc23)c2c(O)ccc3ccccc23)CC1 (stereo not given)	> 512	> 512	> 512	> 512	> 512	> 512	> 512	> 512	> 512	> 512
Oc1ccc2ccccc2c1C(c1cccs1)N1CCOCC1 (stereo not given)	> 512	> 512	> 512	32 (≈ 98.3 µM)	> 512	> 512	> 512	> 512	32 (≈ 98.3 µM)	32 (≈ 98.3 µM)
CC1CCN(C(c2cccc3ccccc23)c2c(O)ccc3cc(Br)ccc23)CC1 (stereo not given)	> 512	> 512	> 512	> 512	> 512	> 512	> 512	> 512	> 512	> 512
CC1CCN(C(c2ccccc2)c2c(O)ccc3cc(Br)ccc23)CC1 (stereo not given)	> 512	> 512	> 512	> 512	> 512	> 512	> 512	> 512	> 512	> 512
CN(C)C(c1cccs1)c1c(O)ccc2ccccc12 (stereo not given)	> 512	> 512	> 512	16 (≈ 56.5 µM)	128 (≈ 452 µM)	> 512	> 512	> 512	16 (≈ 56.5 µM)	16 (≈ 56.5 µM)
Oc1ccc2ccccc2c1C(c1cccs1)N1CCN(c2ccccc2)CC1 (stereo not given)	> 512	> 512	> 512	> 512	> 512	> 512	> 512	> 512	64 (≈ 160 µM)	16 (≈ 39.9 µM)
CC1CCN(C(c2ccccc2)c2c(O)ccc3ccccc23)CC1 (stereo not given)	> 512	> 512	> 512	> 512	> 512	> 512	> 512	> 512	> 512	> 512
Oc1ccc2ccccc2c1C(c1ccc(F)cc1)N1CCCCC1 (stereo not given)	> 512	> 512	> 512	> 512	> 512	> 512	> 512	> 512	8 (≈ 23.9 µM)	> 512
Oc1ccc2ccccc2c1C(c1ccccc1)N1CCCCC1 (stereo not given)	> 512	> 512	> 512	> 512	> 512	> 512	> 512	> 512	8 (≈ 25.2 µM)	> 512
Oc1ccc2cc(Br)ccc2c1C(c1cccc2ccccc12)N1CCCCC1 (stereo not given)	> 512	> 512	> 512	> 512	> 512	> 512	> 512	> 512	> 512	> 512
COc1ccc2ccc(O)c(C(c3cccs3)N3CCC(C)CC3)c2c1 (stereo not given)	> 512	> 512	> 512	64 (≈ 174 µM)	> 512	> 512	> 512	> 512	16 (≈ 43.5 µM)	16 (≈ 43.5 µM)
Cc1cc(C)cc(C(c2c(O)ccc3ccccc23)N2CCCCC2)c1 (stereo not given)	> 512	> 512	> 512	> 512	> 512	> 512	> 512	> 512	4 (≈ 11.6 µM)	> 512

Reference: ChEMBL document CHEMBL3792360, “Antibacterial activity of Mannich bases derived from 2-naphthols, aromatic aldehydes and secondary aliphatic amines” (2016)
